Tests used:
[1] = Relative bioavailability of parent compound 1 in plasma and brain after oral gavage in mice (Example 39); assay type: in vivo, Male CD1 mice; settings: mouse brain samples 2, 4 and 7 hrs post-dose, LC/MS/MS
Protocol: Animals: Male CD1 mice (Charles River) weighing about 25 g—with free access to food and water.
Dose Groups: The compounds of this invention were administered to the test animals at a dose, which is molar equivalent to 10 mg/kg of the parent compound 1, ((R)-3-amino-2-hydroxy-propyl)-cyclohexylmethyl-phosphinic acid. Each of the test compounds was formulated at this dose level to yield a dose volume of 10 mL/kg and administered by oral gavage to a group of three mice per time point in each study group.
Formulations: The compounds of this invention were dissolved in vehicle of 0.2% Tween 80 and 0.5% methylcellulose (MC) at a concentration of about 1 mg/mL.
Samples: The blood samples (for plasma) were collected at the following time points: 5, 15 30 and 45 min […]; and 1, 2, 3, 4, 5, and 7 hrs post-dose. Brains were collected at 2, 4 and 7 hrs post-dose
Blood Handling: The blood samples were added to tubes containing 20 μL of a stock 10 mg/ml solution of sodium fluoride. The blood tubes were then stored in a refrigerator at approximately about 4° C. The volume of blood in each of these samples was about 0.4 mL. The samples were then centrifuged in a refrigerated centrifuge. […]
Bioanalysis: All plasma and brain samples were then analyzed for concentrations of the test compound as well as the parent compound 1, ((R)-3-amino-2-hydroxy-propyl)-cyclohexylmethyl-phosphinic acid by LC/MS/MS. […]

[2] = system: Male Wistar rats; experiment: Chronic Mild Stress Model (CMS), sucrose consumption; assay type: in vivo, rat; settings: 3 and 30 mg/kg orally, daily for five weeks; imipramine 10 mg/kg ip
Protocol: The following CMS study is performed using the parent compound 1 (hereafter “compound 1”) in comparison to known anti-depressant compound imipramine.
Male Wistar rats are brought into the laboratory two months before the start of the experiment at which time they weighed approximately 300 grams. Except as described below, the animals are singly housed, with food and water freely available, and maintained on a 12 hour light/dark cycle (lights on at 8 AM) at a temperature of about 22° C.
The animals are first trained to consume a 1% sucrose solution; training consists of eight 1 hour baseline tests in which sucrose is presented, in the home cage, following 14 hours food and water deprivation; intake is measured by weighing pre-weighed bottles containing the sucrose solution at the end of the test. Subsequently, sucrose consumption is monitored, under similar conditions, at weekly intervals throughout the whole experiment.
On the basis of their sucrose intakes in the final baseline test, the animals are divided into two matched groups. One group of animals is subjected to a chronic mild stress procedure for a period of 9 consecutive weeks. […]
Results are analyzed by multiple analysis of variance, followed by Fisher's LSD test for post hoc comparisons of means.

NC[C@@H](O)CP(=O)(O)CC1CCCCC1 [compound 1, ((R)-3-amino-2-hydroxy-propyl)-cyclohexylmethyl-phosphinic acid]
concentration of the parent compound 1 in brain [1]: proportional to the concentration of the parent compound in plasma
activity in CMS (sucrose intake) compared with imipramine [2]: equal to that of imipramine

Reference: US8828974B2, “Substituted propane phosphinic acid derivatives” (Aventis Pharmaceuticals Inc., priority 2004, dated 2014)
